Assays:
[1] = system: MSU crystal-induced neutrophil migration; test: MSU crystal-induced gout in mice (neutrophil migration to knee); type: in vivo, mouse (C57BL/6); conditions: 66 µg peptide i.v.; MSU crystals 100 µg, C57BL/6, 3 h, n ≥ 5; Figure 5
Method: Monosodium urate crystals were prepared as described previously ([42], [49]) and were injected (100 µg in 10 µl) in the tibiofemoral knee joint of C57Bl/6 mice. A group of mice received CXCL9 peptide or vehicle intravenously and the cells present in the tibiofemoral articulation were harvested 3 h after MSU crystal administration. The total and differential leukocyte counts were determined.
Figure 5 CXCL9(74-93) inhibits CXCL8-induced but not monosodium urate (MSU) crystal-induced neutrophil migration to the knee cavity. CXCL8(1-77) (1 µg) or MSU crystals (100 µg) were injected into the tibiofemoral articulation of C57BL/6 mice (n ≥ 5). Simultaneously, 66 µg of CXCL9(74-93) was injected intravenously and 3 h post injection the number of total cells (A) and neutrophils (B) were evaluated by washing the cavity and differentially counting the leukocyte subtypes on May-Grunwald-Giemsa-stained cytospins. The total numbers of leukocytes and neutrophils are shown for every individual mouse, and the horizontal lines denote the median number of cells. To detect statistically significant differences, the Mann–Whitney U-test was carried out (*p < 0.05; **p < 0.01; ***p < 0.005).

[2] = previously reported; read-out: KD for LMWH; cited from earlier work
Method: To obtain more insight in the contribution of the unique COOH-terminal region of CXCL9 and in the specificity of CXCL9-derived peptides for different GAGs, the affinity of CXCL9(74–93) for LMWH, HS, and CS was determined by IFT. […] A biphasic binding isotherm was obtained when titrating CXCL9(74-93) with HS, indicating more than one binding site for the peptide on this GAG. Fitting only the initial high-affinity phase, a KD ...

[3] = system: CXCL8(1-77) binding to heparin; conditions: compared with CXCL9(74-103) missing 5 to 12 NH2-terminal residues; cited from earlier work
Method: To further investigate the role of the COOH-terminal amino acids, the ability of CXCL9(74-93) to inhibit binding of chemokines to heparin and HS was evaluated. CXCL9(74-93) and CXCL9(74-103) together with a COOH-terminal peptide of one of the strongest GAG-binding chemokines, namely, CXCL4(47-70), were compared in an ELISA-like assay to compete with CXCL8 for heparin bind ...

[4] = system: CXCL8-induced neutrophil migration; conditions: CXCL8 into tibiofemoral articulation of C57BL/6 mice; cited from earlier work
[5] = system: MSU crystal-induced neutrophil migration; conditions: murine model; cited from earlier work
Excerpt: Because of their essential role for the migration of leukocytes, chemokines and their GPCRs can serve as potential targets for the development of new anti-inflammatory drugs ([24]–[26]). Several neutralizing ligands or antibodies, modified chemokines or small molecules have been developed as antagonists ([27]–[30]). However, only two chemokine receptor antagonists are currently used as therapeutics, namely, Maraviroc (a CCR5 antagonist) and AMD3100 (a CXCR4 antagonist) ([31], [32]). Remarkably, these antagonists are not used as anti-inflammatory drugs, but, respectively, as an inhibitor of hum ...

Substance	inhibition of MSU crystal-induced neutrophil migration to the joint [1]	Kd [2] [nM]	competition with CXCL8 for heparin binding [3]	inhibition of neutrophil chemotactic activity of CXCL8 in the tibiofemoral articulation [4]	inhibition of neutrophil extravasation in MSU crystal-induced gout [5]
74KKKQKNGKKHQKKKVLKVRK93 [CXCL9(74-93), COOH-terminal peptide of CXCL9 lacking the 10 COOH-terminal amino acids of CXCL9(74-103)]	could not inhibit MSU crystal-induced neutrophil migration to the joint	–	–	–	–
74KKKQKNGKKHQKKKVLKVRKSQRSRQKKTT103 [CXCL9(74-103), COOH-terminal peptide of CXCL9]	–	61	more potently competes with CXCL8 for binding to heparin	could inhibit the neutrophil chemotactic activity of CXCL8 in vivo	able to inhibit neutrophil extravasation
